Reference: patent US20260061042A1, “POLYNUCLEOTIDE COMPOSITIONS AND USES THEREOF” (Pfizer Inc., priority 2024, published 2026)
Where a chain is given by its changes, count along the chain named. “Also recorded” adds a separate entry of the source. Read-outs that look alike come from different tables or passages of the source.

Experiments:
Assay in all cases: PapG Luminex ligand binding at equilibrium
[1] = biological target: T1, E. coli CFT073 PapG-II lectin domain PapGLD N96S WT v2 (Escherichia coli, UniProt A0A0H2VDP3, N116S); conditions: HEPES pH 7.4, 4° C. overnight
T1 sequence (A0A0H2VDP3 21-216 N116S): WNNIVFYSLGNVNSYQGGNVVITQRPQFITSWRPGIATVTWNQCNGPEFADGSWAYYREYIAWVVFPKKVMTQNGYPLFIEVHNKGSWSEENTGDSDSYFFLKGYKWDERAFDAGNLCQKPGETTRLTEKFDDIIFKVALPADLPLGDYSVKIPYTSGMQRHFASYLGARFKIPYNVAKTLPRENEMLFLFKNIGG
Procedure: (§1) To determine the ability of PapGLD mutants to bind the porcine derived globotetraosyl ceramide ligand GalNAc-Gal-Gal-Glc-ceramide (GbO4), a Luminex ligand binding assay was developed. Surfactant Protein-A (SP-A) was coupled to the surface of MagPlex beads by EDC/NHS, to capture the lipid tail of the globotetraosyl ceramide. The Globotetraosyl ceramide/SP-A beads were incubated with an eight-point threefold titration of PapG in a 96 well flat bottom white plate with final volume of 100 microliters of 50 mM HEPES PH 7.4, 10 mM NaCl, 0.0005% Tween 20 shaking at 300 rpm, 4° C. overnight. After 20-24 hours the ligand binding plates were read on a FlexMap 3D plate reader for measurement of well-bead region specific MFI. Ligand binding equilibrium dissociation constants (Kd) were calculated assuming one site specific binding and interpolated using non-linear curve fitting (GraphPad Prism) as the ligand concentration needed to achieve half-maximal binding. The Luminex derived apparent Kd values are based on approximately fifty bead counts per assay sample.
(§2) To determine Luminex ligand binding affinities of PapG mutants for the synthetic globoside ligand Gal-Glc-phenoxy-octyl-amine (GbO2Mpo), a Luminex ligand binding assay was developed based on the direct coupling of the amine reactive globoside ligand to the EDC/NHS activated carboxylic surface of MagPlex beads. Synthesis of GbO2Mpo ligand with an octyl amine linker (for coupling to beads) was performed via methods described previously. The GbO2Mpo beads were incubated with an 8-point, threefold titration of PapG in a 96-well flat bottom white plate with final volume of 100 μl of 50 mM HEPES pH 7.4, 10 mM NaCl, 0.0005% Tween 20 shaking at 300 rpm, 4° C. overnight. After 20-24 hours the ligand binding plates were read on a FlexMap 3D plate reader for measurement of well-bead region specific MFI.
(§3) Binding of PapG proteins to GbO2 or GbO4 ligands was evaluated using a Luminex platform wherein ligands were coupled to MagPlex beads via surfactant protein A (for […]) or directly using […] conjugation (for […]). This assay was used to rank order binding affinities of the mutants, reported as Kd values interpolated from protein antigen titration curves (Table 7).

[2] = biological target: T2, E. coli CFT073 PapG-II lectin domain PapGLD variant N96S G104A, SEQ ID NO: 16 (Escherichia coli, UniProt A0A0H2VAQ6, G124A/N116S); conditions: for Kd: HEPES pH 7.4, 4° C. overnight
T2 sequence (A0A0H2VAQ6 with tags, fused parts or gaps N116S/G124A): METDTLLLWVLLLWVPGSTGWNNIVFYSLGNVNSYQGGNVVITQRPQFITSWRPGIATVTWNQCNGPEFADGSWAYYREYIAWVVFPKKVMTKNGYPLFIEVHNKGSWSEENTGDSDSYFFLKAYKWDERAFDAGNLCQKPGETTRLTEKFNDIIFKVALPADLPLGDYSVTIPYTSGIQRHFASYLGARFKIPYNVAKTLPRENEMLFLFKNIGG
Procedure: as §1, §2, §3

[3] = biological target: T3, E. coli CFT073 PapG-II lectin domain PapGLD variant N96S G147A, SEQ ID NO: 21 (Escherichia coli, UniProt A0A0H2VAQ6, G167A/N116S); conditions: HEPES pH 7.4, 4° C. overnight
T3 sequence (A0A0H2VAQ6 with tags, fused parts or gaps N116S/G167A): T2 sequence (A0A0H2VAQ6 with tags, fused parts or gaps N116S/G124A) with A124G, G167A
Procedure: as §1, §2, §3

[4] = biological target: T4, E. coli CFT073 PapG-II lectin domain PapGLD variant N96S G168A, SEQ ID NO: 17 (Escherichia coli, UniProt A0A0H2VAQ6, G188A/N116S); conditions: HEPES pH 7.4, 4° C. overnight
T4 sequence (A0A0H2VAQ6 with tags, fused parts or gaps N116S/G188A): T2 sequence (A0A0H2VAQ6 with tags, fused parts or gaps N116S/G124A) with A124G, G188A
Procedure: as §1, §2, §3

[5] = biological target: T5, E. coli CFT073 PapG-II lectin domain PapGLD variant N96S G86A, SEQ ID NO: 14 (Escherichia coli, UniProt A0A0H2VAQ6, G106A/N116S); conditions: HEPES pH 7.4, 4° C. overnight
T5 sequence (A0A0H2VAQ6 with tags, fused parts or gaps G106A/N116S): T2 sequence (A0A0H2VAQ6 with tags, fused parts or gaps N116S/G124A) with G106A, A124G
Procedure: as §1, §2, §3

[6] = biological target: T6, E. coli CFT073 full-length donor strand complemented PapG-II, PapGDSF variant N96S N242S N286S K172A, SEQ ID NO: 26 (Escherichia coli, UniProt A0A0H2VAQ6, K192A/N116S/N262S/N306S); conditions: for Kd: HEPES pH 7.4, 4° C. overnight
T6 construct: mouse IgGK signal peptide, C-terminal 8xHis, ExpiCHO, purified
T6 sequence (A0A0H2VAQ6 with tags, fused parts or gaps N116S/K192A/N262S/N306S): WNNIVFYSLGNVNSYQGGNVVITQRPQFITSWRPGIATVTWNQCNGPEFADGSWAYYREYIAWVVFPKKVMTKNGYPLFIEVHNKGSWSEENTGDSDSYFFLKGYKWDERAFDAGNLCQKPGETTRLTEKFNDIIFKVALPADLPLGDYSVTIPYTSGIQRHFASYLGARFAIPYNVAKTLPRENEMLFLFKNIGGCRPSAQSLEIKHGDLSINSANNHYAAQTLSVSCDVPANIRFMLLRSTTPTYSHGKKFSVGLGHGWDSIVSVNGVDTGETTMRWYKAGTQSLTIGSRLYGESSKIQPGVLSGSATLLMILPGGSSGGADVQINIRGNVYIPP
Procedure: as §1, §2, §3

[7] = GbO2Mpo beads, read-out: Kd (GbO2)
[8] = GbO4 beads, read-out: Kd (GbO4)

Substance	Kd [1, 7]	Kd [2, 7]	Kd [3, 7]	Kd [4, 7]	Kd [5, 7]	binding to GbO2 (in words) [6]	Kd [6, 7]	Kd [1, 8]	binding to GbO4 (in words) [2]	Kd [2, 8]	Kd [3, 8]	Kd [4, 8]	Kd [5, 8]	binding to GbO4 (in words) [6]	Kd [6, 8]
Gal-Glc-phenoxy-octyl-amine [GbO2]	0.0011 µM	> 0.3 µM	0.0046 µM	0.0027 µM	0.0013 µM	no binding was detected	> 0.3 µM								
GalNAc-Gal-Gal-Glc-ceramide [GbO4]								0.029 µM	lower the binding affinity; also recorded: eliminate ligand binding	> 0.3 µM	> 0.3 µM	> 0.1 µM	0.015 µM	no binding was detected	> 0.3 µM
